Laboratory results: PMC8691691 (ACS Chemical Neuroscience, 2021)
Positions count from the first letter of the chain named. Like-named read-outs stand apart in the source and are kept apart here.

What was measured:
[1] = due to its physiological irreversibility; cited from earlier work
[2] = target: T1, GlyT2 (Rattus norvegicus, UniProt P58295); assay: [3H]glycine transport by recombinant GlyT2 expressed in COS7 cells; type: cell-based; details: for Vmax of glycine transport: n = 3; for reversibility of inhibition upon cell washing: washed, transport at 10 μM glycine; for decay of transport inhibition after 1–4 washes: 1 μM inhibitor 10 min, washes with HBS containing NaCl or choline chloride
T1 construct: expressed in transfected cells; host or cells: COS7
T1 sequence (P58295 1-799): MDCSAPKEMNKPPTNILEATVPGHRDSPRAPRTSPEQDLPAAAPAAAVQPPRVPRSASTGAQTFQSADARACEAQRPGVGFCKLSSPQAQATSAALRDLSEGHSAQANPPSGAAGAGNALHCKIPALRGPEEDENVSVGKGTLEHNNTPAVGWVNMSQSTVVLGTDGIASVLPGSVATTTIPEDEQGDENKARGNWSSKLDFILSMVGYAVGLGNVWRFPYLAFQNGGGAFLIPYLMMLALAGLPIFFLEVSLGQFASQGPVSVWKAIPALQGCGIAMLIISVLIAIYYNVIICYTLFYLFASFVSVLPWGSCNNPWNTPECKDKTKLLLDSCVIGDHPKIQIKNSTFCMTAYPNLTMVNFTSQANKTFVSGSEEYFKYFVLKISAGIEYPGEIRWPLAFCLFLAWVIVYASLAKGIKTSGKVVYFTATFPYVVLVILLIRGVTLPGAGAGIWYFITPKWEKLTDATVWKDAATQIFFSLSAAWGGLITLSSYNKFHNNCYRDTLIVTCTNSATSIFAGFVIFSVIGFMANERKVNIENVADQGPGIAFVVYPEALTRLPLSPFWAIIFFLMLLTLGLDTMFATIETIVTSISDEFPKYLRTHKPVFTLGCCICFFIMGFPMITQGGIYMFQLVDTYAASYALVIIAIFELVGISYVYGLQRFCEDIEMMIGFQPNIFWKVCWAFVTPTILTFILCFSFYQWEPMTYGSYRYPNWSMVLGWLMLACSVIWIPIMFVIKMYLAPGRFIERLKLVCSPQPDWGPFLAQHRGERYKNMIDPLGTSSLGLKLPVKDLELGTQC
Procedure: Substitution mutants were generated with the QuikChange II Site-Directed Mutagenesis kit (Agilent Technologies, Santa Clara, CA, USA), using rGlyT2 or rGlyT1 subcloned in pCDNA3.[47] The complete coding region of all of the constructs was sequenced to verify that only the desired mutation had been introduced. […] COS7 cells were grown and transfected using Turbofect Transfection Reagent (Thermo Fisher Scientific, Waltham, MA, USA), following the manufacturer’s protocol (2 μL reagent/μg of DNA). Cells were incubated for 48 h at 37 °C until used.
At the end of the desired time (usually 10 min), reactions were washed and terminated by aspiration. […] A nonlinear curve fitting method was used to obtain IC50 values using Graphpad Prism software, version 6.0, Graphpad, San Diego, CA, USA.

[3] = target: T2, GlyT2 S481G mutant (Rattus norvegicus, UniProt P58295, S481G); assay: [3H]glycine transport by GlyT2 mutant in COS7 cells; type: cell-based
T2 construct: expressed in transfected cells; host or cells: COS7
T2 sequence (P58295 1-799 S481G): T1 sequence (P58295 1-799) with S481G

[4] = 1 nM inhibitor, glycine 0.5–500 μM
[5] = 10 nM inhibitor, glycine 0.5–500 μM
[6] = 50 nM inhibitor, glycine 0.5–500 μM
[7] = 100 nM inhibitor, glycine 0.5–500 μM
[8] = IC50, inhibition of glycine transport, COS7 cells, 10 μM glycine

Compound	toxicity in animals [1]	Vmax of glycine transport [2, 4] [nmol Gly/mg prot/6 min]	Vmax of glycine transport [2, 5] [nmol Gly/mg prot/6 min]	reversibility of inhibition upon cell washing ([2]; 50 nM inhibitor)	Vmax of glycine transport [2, 6] [nmol Gly/mg prot/6 min]	Vmax of glycine transport [2, 7] [nmol Gly/mg prot/6 min]	decay of transport inhibition after 1–4 washes [2]	IC50 ([2]; IC50 (Table S1), wtGlyT2, 10 μM glycine as in Figs. 4 and 5) [nM]	IC50 ([2]; IC50, inhibition of [3H]-glycine transport, low sodium, 25 mM NaCl, choline chloride substitution) [nM]	IC50 ([2]; IC50, inhibition of [3H]-glycine transport, regular sodium, 150 mM NaCl) [nM]	IC50 [2, 8] [nM]	selectivity for GlyT2 (in words) ([2]; compared with ALX1393, Figure 2B)	inhibition type (Eadie–Hofstee plots) ([2]; glycine 0.5–500 μM)	IC50 ([2]; 25 mM NaCl, choline chloride substitution, read-out: IC50, inhibition of [3H]-glycine transport, low sodium) [nM]	IC50 ([2]; 150 mM NaCl, read-out: IC50, inhibition of [3H]-glycine transport, regular sodium) [nM]	selectivity for GlyT2 over GlyT1 ([2]; COS7 cells)	difference of inhibitor EC50 at every glycine concentration from its value at 10 μM glycine ([2]; glycine 0.5–500 μM)	effect of mutation on inhibition of glycine transport ([3]; S481G, 1 μM inhibitor, 25 μM glycine)	IC50 ([3]; read-out: IC50 (Table S1)) [nM]
COc1cc(C(=O)NCC2(N(C)C)CCCC2)cc(OC)c1OCc1ccccc1 [ORG25543, N-[[1-(dimethylamino)cyclopentyl]methyl]-3,5-dimethoxy-4-(phenylmethoxy)benzamide]	generates toxicity in animals	24.6	23.8	irreversible inhibition	18.6	11.5	no inhibition decay was observed	18 ± 5	51.2 ± 12.3	23.8 ± 7.1	17.7 ± 4.6	higher selectivity for GlyT2	mainly noncompetitive behavior	–	–	–	–	–	–
N[C@@H](COC(c1cccc(F)c1)c1ccccc1OCc1ccccc1)C(=O)O (stereo partly drawn) [ALX1393]	–	22.3	18.8	eliminated by cell washing	13.2	30.4	presence of sodium in the washing buffer reduced the washing power	–	–	–	31 ± 2.7	–	noncompetitive behavior	122 ± 20.9	21.8 ± 4.1	about 2 orders of magnitude	no more than 30%	more reduced inhibition potency for ALX1393 than for ORG25543	75 ± 8
